PMC9629815, “MK256 is a novel CDK8 inhibitor with potent antitumor activity in AML through downregulation of the STAT pathway” (Oncotarget, 2022)
≈ marks a conversion by molar mass, not a printed value. Like-named read-outs stand apart in the source and are kept apart here.

Columns and labels:
SET-2 = test: Cell proliferation assay (CellTiter-Glo, 7-day); assay type: cell-based; details: Homo sapiens, SET-2, 168 h
HEL = test: Cell proliferation assay (CellTiter-Glo, 7-day); assay type: cell-based; details: Homo sapiens, 168 h
Method: [The procedure below names another cell line; the source lists this cell line under the same test.] (§1) AML cell lines MV-4-11, MOLM14, KG-1, and SKNO-1 were acquired from ATCC (Manassas, VA, USA) and DSMZ (Braunschweig, Germany). Cells were plated (96-well) in triplicate at 3000 cells per well for testing (n = 3) in 1% FBS media. On day 7, the CellTiter-Glo Luminescent Cell Viability Assay (Promega, Madison, WI, US) was performed to measure the response. Two independent experiments were done.

KG-1 = test: Cell proliferation assay (CellTiter-Glo, 7-day); assay type: cell-based; details: Homo sapiens, KG-1, 168 h
Method: as §1

MOLM-13 = test: Cell proliferation assay (CellTiter-Glo, 7-day); assay type: cell-based; details: Homo sapiens, MOLM-13, 168 h
Method: [The procedure below names another cell line; the source lists this cell line under the same test.] as §1

MOLM-14 = test: Cell proliferation assay (CellTiter-Glo, 7-day); assay type: cell-based; details: Homo sapiens, MOLM-14, 168 h
Method: as §1

MONO-MAC-6 = test: Cell proliferation assay (CellTiter-Glo, 7-day); assay type: cell-based; details: Homo sapiens, MONO-MAC-6, 168 h
Method: [The procedure below names another cell line; the source lists this cell line under the same test.] as §1

MUTZ-8 = test: Cell proliferation assay (CellTiter-Glo, 7-day); assay type: cell-based; details: MUTZ-8, 168 h
Method: [The procedure below names another cell line; the source lists this cell line under the same test.] as §1

MV-4-11 = test: Cell proliferation assay (CellTiter-Glo, 7-day); assay type: cell-based; details: Homo sapiens, MV4-11, 168 h
Method: as §1

NOMO-1 = test: Cell proliferation assay (CellTiter-Glo, 7-day); assay type: cell-based; details: Homo sapiens, NOMO-1, 168 h
Method: [The procedure below names another cell line; the source lists this cell line under the same test.] as §1

SKNO-1 = test: Cell proliferation assay (CellTiter-Glo, 7-day); assay type: cell-based; details: SKNO-1, 168 h
Method: as §1

[1] = test system: p-STATs and MCL-1 in MV-4-11 cells; test: Western blot of STAT pathway in MV-4-11 cells; assay type: cell-based; details: 48 hrs
Method: For the in vitro western blot study, MV-4-11 and MOLM-14 cells were plated (6-well) at 5 × 10^5 cells per well with medium containing 1% FBS overnight. MK-256 was added in different concentrations at different time points. […] Total protein concentration was measured using the Pierce BCA protein Assay Kit (23227, Thermo Fisher Scientific). Proteins were separated on SDS-PAGE and transferred to Nitrocellulose membrane.

Kinetic solubility assay = assay type: physicochemical
Method: MK256 was supplied as DMSO stock at 10 mM. 190 μL of buffer solution (PBS, pH 7.4) was added to all wells on a 96-well Millipore Solubility filter plate. 10 μL of MK256 or control compound testosterone was transferred in triplicate to the buffer wells to a final concentration of 500 μM. The filter plate was shaken for 1.5 hours at room temperature. Samples were filtered via a vacuum system into a fresh 96-well plate. Compounds were diluted to 500 μM (highest concentration) in DMSO and further diluted 1:10 for calibration curve (three-point). HPLC/UV analysis was performed on all samples (220 nm, 254 nm, and 280 nm).

[2] = Hepatocyte stability assay; assay type: in vitro ADME, Dog
Method: (§2) Human LiverPoolTM 20-donor, dog and mouse cryopreserved hepatocytes were obtained from BioreclamationIVT. Cryopreserved hepatocytes were removed from the liquid nitrogen tank and thawed in a 37°C water bath. As soon as the cells pulled away from the vial wall, they were decanted into 48 ml of warm HT medium. Cells were centrifuged for four minutes at 420 rpm (50 g). After the supernatant was removed, the pellet was re-suspended in warm DMEM medium. Cell density was counted by a hemacytometer. The assay was carried out in 96-well microtiter plates. MK256 was incubated for 0, 60, 120, and 180 minutes at 37°C with hepatocytes. Reaction mixtures (50 μL) contained a final concentration of 1 μM MK256, 0.5 million cells/mL hepatocytes in the DMEM medium. At each time point (for example, 0, 1, 2, and 3 hrs), 200 μL of quench solution (100% acetonitrile with 0.1% formic acid) with internal standard were transferred to each well. […] All samples were analyzed on LC/MS/MS using an AB Sciex API 4000 instrument, coupled to a Shimadzu LC-20AD LC Pump system. […] The extent of metabolism was calculated as the disappearance of the test compound, compared to the 0-min control reaction incubations. Initial rates were calculated for the compound concentration and used to determine t1/2 values and subsequently, the intrinsic clearance, CLint = (0.693)(1/t1/2 (min))(mL incubation/million cells).

[3] = Hepatocyte stability assay; assay type: in vitro ADME, Mouse
Method: as §2

CYP2C19 = CYP2C19 (Homo sapiens, UniProt P33261); test: Cytochrome P450 inhibition assay; assay type: in vitro ADME; details: 50 uM
Sequence of CYP2C19 (P33261 whole entry): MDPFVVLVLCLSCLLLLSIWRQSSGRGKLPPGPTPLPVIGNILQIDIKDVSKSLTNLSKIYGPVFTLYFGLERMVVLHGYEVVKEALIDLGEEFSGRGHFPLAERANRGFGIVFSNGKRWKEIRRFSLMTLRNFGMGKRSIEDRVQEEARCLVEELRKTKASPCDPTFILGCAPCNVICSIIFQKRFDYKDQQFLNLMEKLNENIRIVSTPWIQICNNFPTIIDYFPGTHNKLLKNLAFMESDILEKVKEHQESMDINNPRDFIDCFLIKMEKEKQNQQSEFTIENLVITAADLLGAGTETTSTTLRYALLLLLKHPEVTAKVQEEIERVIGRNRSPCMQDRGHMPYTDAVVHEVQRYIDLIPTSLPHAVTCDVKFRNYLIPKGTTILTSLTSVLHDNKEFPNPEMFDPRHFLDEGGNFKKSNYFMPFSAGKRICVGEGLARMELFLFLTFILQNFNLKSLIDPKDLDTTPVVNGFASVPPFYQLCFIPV

CYP3A4-MDZ = CYP3A4-MDZ (Homo sapiens, UniProt P08684); test: Cytochrome P450 inhibition assay; assay type: in vitro ADME; details: 50 uM
Sequence of CYP3A4-MDZ (P08684 whole entry): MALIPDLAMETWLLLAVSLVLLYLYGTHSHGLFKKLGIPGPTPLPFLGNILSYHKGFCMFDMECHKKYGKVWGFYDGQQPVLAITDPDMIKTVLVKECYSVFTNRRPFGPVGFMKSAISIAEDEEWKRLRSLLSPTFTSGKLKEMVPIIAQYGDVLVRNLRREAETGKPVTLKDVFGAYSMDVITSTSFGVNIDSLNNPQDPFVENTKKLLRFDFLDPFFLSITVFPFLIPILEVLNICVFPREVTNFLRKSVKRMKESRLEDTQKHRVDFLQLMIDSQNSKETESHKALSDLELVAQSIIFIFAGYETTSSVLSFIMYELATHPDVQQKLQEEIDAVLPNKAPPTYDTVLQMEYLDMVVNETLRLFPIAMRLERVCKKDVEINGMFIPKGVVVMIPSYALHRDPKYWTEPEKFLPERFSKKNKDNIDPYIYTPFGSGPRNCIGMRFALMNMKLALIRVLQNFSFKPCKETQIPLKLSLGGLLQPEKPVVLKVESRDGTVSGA

[4] = 7-day, bound given in text, read-out: IC50

With `Nc1nccc2c(Br)cc3cc(C(=O)O)ccc3c12` [MK256] the IC50 (SET-2) was 212 nM, the IC50 (HEL; [4]) was > 2000 nM and the IC50 (HEL; read-out: IC50 nM (7-day)) was 2700 nM. For the same compound, the IC50 (KG-1) was 80 nM, the IC50 (MOLM-13) was 1050 nM and the IC50 (MOLM-14) was 24 nM. For the same compound, the IC50 (MONO-MAC-6) was 1260 nM, the IC50 (MUTZ-8; [4]) was > 2000 nM and the IC50 (MUTZ-8; read-out: IC50 nM (7-day)) was 5560 nM. It also gave an IC50 (MV-4-11) of 23 nM, an IC50 (NOMO-1) of 646 nM and an IC50 (SKNO-1) of 73 nM. The “expression levels of p-STAT1 (S727), p-STAT3(S727), p-STAT5(S726)” value ([1]; 30 nM to 1 uM) was “trend of reduction”, the “expression of MCL-1” value ([1]; 30 nM to 1 uM, dose-dependent) was “reduced expression” and the “expression level of MCL-1, p-STAT3(S727) and p-STAT5(S726)” value ([1]; 1 uM) was “remained at minimal levels”. The “expression level of p-STAT1(S727)” value ([1]; 1 uM) was “abrogated completely”, the “expression levels of p-STAT1(Y701) and p-STAT5(Y694)” value ([1]; high concentrations) was “unaffected” and the solubility kinetic at 1.5 h (Kinetic solubility assay; PBS buffer, aqueous buffer, kinetic from dmso stock, pH 7.4, read-out: KSOL (μM) PBS (PH 7.4)) was 566 µM (≈ 180 µg/mL). The solubility kinetic at 1.5 h (Kinetic solubility assay; PBS, pH 7.4, read-out: KSOL (μM) PBS (PH 7.4)) was 566 µM (≈ 180 µg/mL), the “Clint (μL·min^−1·mg protein^−1)” value ([2]; Dog hepatocytes) was 7 μL·min^−1·mg protein^−1 and the half-life at 1 µM ([2]; dog, cryopreserved dog hepatocytes, read-out: T½) was 3.57 h. For the same compound, the “Clint (μL·min^−1·mg protein^−1)” value ([3]; Mouse hepatocytes) was 5 μL·min^−1·mg protein^−1, the half-life at 1 µM ([3]; mouse, cryopreserved mouse hepatocytes, read-out: T½) was 5.18 h and the “cytochrome P450 inhibition” value (CYP2C19) was “no inhibition”. The “cytochrome P450 inhibition” value (CYP3A4-MDZ) was “no inhibition”.
